{
  "source": "patent US9506056B2",
  "about": "“Nucleic acid functionalized nanoparticles for therapeutic applications” (NORTHWESTERN UNIVERSITY, priority 2006, dated 2016)",
  "test_system": "A549 cells",
  "test": "Cell viability of dox-treated A549 cultures with oligonucleotide-modified nanoparticles",
  "type": "cell-based, human",
  "conditions": "dox alone at 25 μm dox concentration",
  "protocol": "As proof of the oligonucleotide-modified gold nanoparticle for drug control concept, the anticancer drug doxorubicin hydrochloride (dox) in a lung cancer cell model (A549) was investigated. […] However, when an oligonucleotide functionalized nanoparticle agent containing a non-specific sequence is added to the culture at the same point as the drug molecule, a dose-dependant recovery of cell viability is observed (cells recover to approximately 80% viable at 3 nM concentration of nanoparticles). The dox-treated cells were then examined in the presence of an anti-survivin oligonucleotide modified gold nanoparticle conjugate. […] In these studies, the anti-survivin containing nanoparticle agent added to the culture at the same point as the drug molecule reduce cell viability to 45% at low concentrations and recover cell viability to 75% at high concentrations (FIG. 3).",
  "note": "Where a name gives a salt, the structure may show the parent alone.",
  "data": [
    {"smiles": "COc1cccc2c1C(=O)c1c(O)c3c(c(O)c1C2=O)C[C@@](O)(C(=O)CO)C[C@@H]3O[C@H]1C[C@H](N)[C@H](O)[C@H](C)O1", "note": "[dox, doxorubicin hydrochloride]", "values": [
      {"measurement": "cell viability", "value": "approximately 60%"}
    ]}
  ]
}
